Active and inactive are the calls of the source. The calls are words filed in the database; no cut-off is given here.
Assays:
[1] = tested on: CCRF-CEM; test: Growth inhibition of human CCRF-CEM cells incubated for 48 hrs by sulforhodamine B assay; format: functional
[2] = tested on: A549; test: Growth inhibition of human A549/ATCC cells incubated for 48 hrs by sulforhodamine B assay; format: functional; settings: A549, 48 h
[3] = tested on: EKVX; test: Growth inhibition of human EKVX cells incubated for 48 hrs by sulforhodamine B assay; format: functional
[4] = tested on: HOP-62; test: Growth inhibition of human HOP62 cells incubated for 48 hrs by sulforhodamine B assay; format: functional; settings: HOP-62, 48 h
[5] = tested on: NCI-H322M; test: Growth inhibition of human NCI-H322M cells incubated for 48 hrs by sulforhodamine B assay; format: functional
[6] = tested on: NCI-H460; test: Growth inhibition of human NCI-H460 cells incubated for 48 hrs by sulforhodamine B assay; format: functional; settings: NCI-H460, 48 h
[7] = tested on: COLO 205; test: Growth inhibition of human COLO205 cells incubated for 48 hrs by sulforhodamine B assay; format: functional; settings: COLO 205, 48 h
[8] = tested on: HT-29; test: Growth inhibition of human HT-29 cells incubated for 48 hrs by sulforhodamine B assay; format: functional; settings: HT-29, 48 h
[9] = tested on: SF-268; test: Growth inhibition of human SF268 cells incubated for 48 hrs by sulforhodamine B assay; format: functional; settings: SF-268, 48 h
[10] = tested on: SF-295; test: Growth inhibition of human SF295 cells incubated for 48 hrs by sulforhodamine B assay; format: functional; settings: SF-295, 48 h
[11] = tested on: SF-539; test: Growth inhibition of human SF539 cells incubated for 48 hrs by sulforhodamine B assay; format: functional; settings: SF-539, 48 h
[12] = tested on: SNB-19; test: Growth inhibition of human SNB19 cells incubated for 48 hrs by sulforhodamine B assay; format: functional; settings: SNB-19, 48 h
[13] = tested on: SNB-75; test: Growth inhibition of human SNB75 cells incubated for 48 hrs by sulforhodamine B assay; format: functional; settings: SNB-75, 48 h
[14] = tested on: UACC-257; test: Growth inhibition of human UACC257 cells incubated for 48 hrs by sulforhodamine B assay; format: functional; settings: UACC-257, 48 h
[15] = tested on: OVCAR-5; test: Growth inhibition of human OVCAR5 cells incubated for 48 hrs by sulforhodamine B assay; format: functional; settings: OVCAR-5, 48 h
[16] = tested on: SK-OV-3; test: Growth inhibition of human SKOV3 cells incubated for 48 hrs by sulforhodamine B assay; format: functional; settings: SK-OV-3, 48 h
[17] = tested on: 786-0; test: Growth inhibition of human 786-0 cells incubated for 48 hrs by sulforhodamine B assay; format: functional; settings: 786-0, 48 h
[18] = tested on: A498; test: Growth inhibition of human A498 cells incubated for 48 hrs by sulforhodamine B assay; format: functional; settings: A498, 48 h
[19] = tested on: CAKI-1; test: Growth inhibition of human Caki1 cells incubated for 48 hrs by sulforhodamine B assay; format: functional; settings: CAKI-1, 48 h
[20] = tested on: RXF 393; test: Growth inhibition of human RXF393 cells incubated for 48 hrs by sulforhodamine B assay; format: functional; settings: RXF 393, 48 h
[21] = tested on: UO-31; test: Growth inhibition of human UO31 cells incubated for 48 hrs by sulforhodamine B assay; format: functional; settings: UO-31, 48 h
[22] = tested on: DU-145; test: Growth inhibition of human DU145 cells incubated for 48 hrs by sulforhodamine B assay; format: functional; settings: DU-145, 48 h
[23] = tested on: RPMI-8226; test: Growth inhibition of human RPMI8226 cells at 10^-5 M incubated for 48 hrs by sulforhodamine B assay relative to control; format: functional; settings: RPMI-8226, 48 h, read-out: GI
[24] = tested on: SR; test: Growth inhibition of human SR cells at 10^-5 M incubated for 48 hrs by sulforhodamine B assay relative to control; format: functional; settings: read-out: GI
[25] = tested on: UO-31; test: Growth inhibition of human UO31 cells at 10^-5 M incubated for 48 hrs by sulforhodamine B assay relative to control; format: functional; settings: UO-31, 48 h, read-out: GI
[26] = tested on: MCF7; test: Growth inhibition of human MCF7 cells at 10^-5 M incubated for 48 hrs by sulforhodamine B assay relative to control; format: functional; settings: MCF7, 48 h, read-out: GI
[27] = tested on: MDA-MB-468; test: Growth inhibition of human MDA-MB-468 cells at 10^-5 M incubated for 48 hrs by sulforhodamine B assay relative to control; format: functional; settings: MDA-MB-468, 48 h, read-out: GI
[28] = tested on: Panel NCI-60 (60 carcinoma cell lines); test: Therapeutic index, ratio of LC50 for human NCI60 cells to GI50 for human NCI60 cells measured after 48 hrs by sulforhodamine B assay; format: functional
[29] = tested on: C6; test: Cell cycle arrest in rat C6 cells assessed as increase in cell population at sub G0 phase measured after 24 hrs by propidium iodide staining based flow cytometry analysis; format: functional
[30] = molecular target: T1, Dihydrofolate reductase (Homo sapiens) (UniProt P00374); test: Binding affinity to human dihydrofolate reductase at 5 uM assessed as decrease in absorption band by UV-visible spectroscopic analysis
T1 sequence (whole entry): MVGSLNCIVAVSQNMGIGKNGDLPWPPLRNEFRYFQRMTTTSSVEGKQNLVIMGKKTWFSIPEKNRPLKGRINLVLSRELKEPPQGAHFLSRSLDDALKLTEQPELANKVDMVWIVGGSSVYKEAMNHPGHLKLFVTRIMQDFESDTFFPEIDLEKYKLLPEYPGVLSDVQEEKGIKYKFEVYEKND

[31] = read-out: pLC50 (the source's name) (converted)

SMILES: O=C(OC[C@@H]1CO1)c1cccc2c(=O)c3ccccc3[nH]c12
- GI50 ([1]; read-out: GI50): 0.77 µM
- CC50 ([1]; read-out: LC50 (the source's name)): > 100 µM
- CC50 [1, 31]: > 100 µM
- TGI ([1]; read-out: pTGI (converted)): 21.9 µM
- GI50 [2]: 2.45 µM
- CC50 [2, 31]: > 100 µM
- TGI ([2]; read-out: pTGI (converted)): 7.24 µM
- GI50 [3]: 2.57 µM
- CC50 [3, 31]: > 100 µM
- TGI ([3]; read-out: pTGI (converted)): 6.46 µM
- GI50 [4]: 2.14 µM
- CC50 [4, 31]: > 100 µM
- TGI ([4]; read-out: pTGI (converted)): 5.89 µM
- GI50 [5]: 2.19 µM
- CC50 [5, 31]: > 100 µM
- TGI ([5]; read-out: pTGI (converted)): 5.89 µM
- GI50 [6]: 1.7 µM
- CC50 [6, 31]: 51.3 µM
- TGI ([6]; read-out: pTGI (converted)): 4.47 µM
- GI50 [7]: 1.48 µM
- CC50 [7, 31]: 33.9 µM
- TGI ([7]; read-out: pTGI (converted)): 4.17 µM
- GI50 [8]: 2.24 µM
- CC50 [8, 31]: > 100 µM
- TGI ([8]; read-out: pTGI (converted)): 7.94 µM
- GI50 ([9]; read-out: pGI50 (converted)): 1.62 µM
- CC50 [9, 31]: > 100 µM
- TGI ([9]; read-out: pTGI (converted)): 6.03 µM
- GI50 [10]: 2.88 µM
- CC50 [10, 31]: > 100 µM
- TGI ([10]; read-out: pTGI (converted)): 9.55 µM
- GI50 [11]: 1.78 µM
- CC50 [11, 31]: 7.76 µM
- TGI ([11]; read-out: pTGI (converted)): 3.72 µM
- GI50 [12]: 2.29 µM
- CC50 [12, 31]: 28.2 µM
- TGI ([12]; read-out: pTGI (converted)): 7.76 µM
- GI50 [13]: 1.51 µM
- CC50 [13, 31]: 7.94 µM
- TGI ([13]; read-out: pTGI (converted)): 3.47 µM
- GI50 [14]: 2.09 µM
- CC50 [14, 31]: 9.55 µM
- TGI ([14]; read-out: pTGI (converted)): 4.47 µM
- GI50 [15]: 2.45 µM
- CC50 [15, 31]: > 100 µM
- TGI ([15]; read-out: pTGI (converted)): 6.46 µM
- GI50 [16]: 2.63 µM
- CC50 [16, 31]: > 100 µM
- TGI ([16]; read-out: pTGI (converted)): 7.41 µM
- GI50 [17]: 2.75 µM
- CC50 [17, 31]: > 100 µM
- TGI ([17]; read-out: pTGI (converted)): 8.13 µM
- GI50 [18]: 2.63 µM
- CC50 [18, 31]: 27.5 µM
- TGI ([18]; read-out: pTGI (converted)): 6.61 µM
- GI50 [19]: 1.82 µM
- CC50 [19, 31]: > 100 µM
- TGI ([19]; read-out: pTGI (converted)): 8.32 µM
- GI50 [20]: 1.38 µM
- CC50 [20, 31]: 5.75 µM
- TGI ([20]; read-out: pTGI (converted)): 2.82 µM
- GI50 [21]: 1.74 µM
- CC50 [21, 31]: 77.6 µM
- TGI ([21]; read-out: pTGI (converted)): 5.01 µM
- GI50 [22]: 1.35 µM
- CC50 [22, 31]: > 100 µM
- TGI ([22]; read-out: pTGI (converted)): 5.89 µM
- inhibition of growth at 10 µM [23]: 100%
- inhibition of growth at 10 µM [24]: 90%
- inhibition of growth at 10 µM [25]: 100%
- inhibition of growth at 10 µM [26]: 100%
- inhibition of growth at 10 µM [27]: 100%
- TI [28]: 126
- Activity [29]: Active
- Activity [30]: Active

Reference: ChEMBL document CHEMBL4359904, “Structural tuning of acridones for developing anticancer agents targeting dihydrofolate reductase” (Bioorg Med Chem Lett, 2019)
